Results reported in patent US11504363B2, “Method of treating cancer and bone cancer pain” (Exelixis, Inc., priority 2011, dated 2022).

Legend:
[1] = system: pancreatic neuroendocrine tumor model; experiment: Murine pancreatic neuroendocrine tumor model; conditions: mouse, in vivo
[2] = system: CRPC patients with evidence of bone metastases on bone scan; experiment: Phase 2 adaptive trial NCT00940225, first three CRPC patients with bone metastases (Case Study 1); type: in vivo, human
Protocol: In 2000, local disease recurrence was treated with radiation therapy. […] CAB with leuprolide and bicalutamide was initiated.

[3] = system: melanoma with bone metastases; experiment: Randomized discontinuation study, melanoma with bone metastases (Case Study 5); type: in vivo, human; conditions: 39 of 65 patients
xenograft tumor models = experiment: Xenograft tumor models; conditions: in vivo
[4] = Phase 1 clinical study, tolerability; type: in vivo, human; conditions: most common adverse events: fatigue, diarrhea, anorexia, rash, palmar-plantar erythrodysesthesia
[5] = system: breast cancer with bone metastases; experiment: Randomized discontinuation study, breast cancer with bone metastases (Case Study 6); type: in vivo, human; conditions: of 10 evaluable for bone scan resolution (forty percent)
[6] = system: differentiated thyroid cancer, bone metastasis to the skull; experiment: Phase 1 drug-drug trial, differentiated thyroid cancer with bone metastasis (Case Study 7); type: in vivo, human; conditions: one patient, after 9 weeks of treatment
[7] = system: CRPC patients with bone metastases; experiment: Phase 2 adaptive randomized discontinuation trial (RDT), Case Study 2; type: in vivo, human; conditions: for patients reporting improvements in bone pain: baseline bone pain; for patients achieving tumor regression / patients experiencing pain relief / patients reducing or eliminating need for narcotic analgesics / patients with marked declines in markers of bone turnover / patients free of disease progression at month 6: post hoc
From the text: Data on bone pain and narcotic use, as assessed by the investigator, were collected retrospectively.

[8] = system: renal cell carcinoma with bone metastases; experiment: Phase I trial, renal cell carcinoma with bone metastases (Case Study 4); type: in vivo, human
[9] = patients with bone scan resolution
[10] = patients without bone scan resolution

In the case of COc1cc2nccc(Oc3ccc(NC(=O)C4(C(=O)Nc5ccc(F)cc5)CC4)cc3)c2cc1OC [Compound 1, N-(4-{[6,7-bis(methyloxy)quinolin-4-yl]oxy}phenyl)-N′-(4-fluorophenyl)cyclopropane-1,1-dicarboxamide], the overall survival [1] is reported as “substantially improves”, the “tumor invasiveness and metastasis” value [1] is reported as “significantly reduces” and the “Bone scan (best response)” value ([2]; Patient 1) is reported as “Complete resolution”. For the same compound, the “Hemoglobin (best response, change)” value ([2]; Patient 1) was “+1.4 g/dL”, the “PSA (best response, change)” value ([2]; Patient 1) was −78% and the “Pain (best response)” value ([2]; Patient 1) was “Improvement”. The “tALP (best response, change)” value ([2]; Patient 1) was −77%, the “radiotracer uptake by bone metastases on bone scan” value ([2]; Patient 1, Week 6) was “dramatic decrease” and the “bone lesions on bone scan” value ([2]; Patient 1, Week 12, stable through Week 18) was “near complete resolution”. For the same compound, the “adverse event leading to withdrawal” value ([2]; Patient 1, Week 18) was “Grade 3 diarrhea”, the bone pain ([2]; Patient 1, four weeks after start) was “significant reduction” and the “Bone scan (best response)” value ([2]; Patient 2) was “Improvement”. The “Hemoglobin (best response, change)” value ([2]; Patient 2) was “+1.8 g/dL”, the “PSA (best response, change)” value ([2]; Patient 2) was “+61%” and the “Pain (best response)” value ([2]; Patient 2) was “Pain-free”. For the same compound, the “tALP (best response, change)” value ([2]; Patient 2) was −6%, the bone pain ([2]; Patient 2, Week 4) was “reduction in bone pain” and the “radiotracer uptake by bone lesions on bone scan” value ([2]; Patient 2, Week 6) was “slight flair”. For the same compound, the “hemoglobin increase compared with baseline” value ([2]; Patient 2, Week 12) was 1.8 g/dL, the “radiotracer uptake on bone scan” value ([2]; Patient 2, Week 12) was “substantial reduction” and the PSA peak ([2]; Patient 2, by Week 16, placebo from Week 12, crossed over to Compound 1 at Week 15) was ~6 fold of baseline. The PSA ([2]; Patient 2, by Week 18, subsequent to crossing over to Compound 1 from placebo) was 2 fold of baseline, the “Bone scan (best response)” value ([2]; Patient 3) was “Near resolution” and the “Hemoglobin (best response, change)” value ([2]; Patient 3) was “+2.2 g/dL”. For the same compound, the “PSA (best response, change)” value ([2]; Patient 3) was −57%, the “Pain (best response)” value ([2]; Patient 3) was “Pain-free” and the “tALP (best response, change)” value ([2]; Patient 3) was −77%. For the same compound, the “hemoglobin increase compared with baseline” value ([2]; Patient 3, Week 2) was 2.2 g/dL, the “radiotracer uptake on bone scan” value ([2]; Patient 3, Week 6) was “dramatic reduction” and the “bone lesions on bone scan” value ([2]; Patient 3, Week 12) was “complete resolution of bone lesions”. For the same compound, the pain ([2]; Patient 3, after three weeks) was “complete resolution of pain”, the “patients with tumor shrinkage based on bone scan analysis” value [3] was 60% and the “tumor effect in xenograft tumor models” value (xenograft tumor models) was “causes tumor regression”. For the same compound, the tolerability [4] was “generally well-tolerated”, the “patients with tumor shrinkage based on bone scan analysis” value [5] was 4 patients and the “response of skull bone metastasis as judged by MRI” value [6] was “dramatic response”. For the same compound, the “patients able to decrease or discontinue narcotic medication for bone pain” value ([7]; 47 of 67 patients on narcotic analgesics at baseline) was 70%, the “patients with pain improvement” value ([7]; 56 of 83 patients with bone metastases and bone pain at baseline, at either Week 6 or 12) was 68% and the “patients with resolution or stabilization of metastatic bone lesions on bone scan” value ([7]; 82 of 108 evaluable patients) was 76%. For the same compound, the “hemoglobin levels in anemic patients” value ([7]; anemic patients) was “Durable increases”, the “patients reporting improvements in bone pain” value ([7]; complete resolution by bone scan (n=10)) was 80% and the “patients reporting improvements in bone pain” value ([7]; partial resolution by bone scan (n=32)) was 84%. For the same compound, the “patients reporting improvements in bone pain” value ([7]; stabilization of disease by bone scan (n=13)) was 38%, the “median PFS” value ([7]; docetaxel-naïve patients (95% CI 24, upper limit not yet reached)) was 24 weeks and the “median PFS” value ([7]; docetaxel-pretreated patients (95% CI 18, 33)) was 29 weeks. For the same compound, the “patients with stable disease (SD) on bone scan” value ([7]; independent reviewer, 23 of n=108) was 21%, the “subjects with partial or complete resolution of bone scan” value ([7]; independent reviewer, 82 of n=108) was 76% and the “patients with progressive disease in bone as best assessment” value ([7]; independent reviewer, three of n=108) was 3%. For the same compound, the “median PFS” value ([7]; overall population excluding those randomized to placebo, n=154) was 29 weeks, the “patients achieving tumor regression” value [7, 9] was 78% and the “patients experiencing pain relief” value [7, 9] was 83%. For the same compound, the “patients reducing or eliminating need for narcotic analgesics” value [7, 9] was 68%, the “patients with marked declines in markers of bone turnover” value [7, 9] was 60% and the “patients free of disease progression at month 6” value ([7]; patients with bone scan resolution (complete or partial)) was 61%. For the same compound, the “patients achieving tumor regression” value [7, 10] was 58%, the “patients experiencing pain relief” value [7, 10] was 43% and the “patients reducing or eliminating need for narcotic analgesics” value [7, 10] was 33%. For the same compound, the “patients with marked declines in markers of bone turnover” value [7, 10] was 43%, the “patients free of disease progression at month 6” value ([7]; patients without bone scan resolution (stable or progressing bone scan)) was 35% and the “reduction in the risk of progression compared with placebo” value ([7]; randomized discontinuation phase) was 87%. For the same compound, the “investigator-assessed median PFS from week 12 onward” value ([7]; randomized discontinuation phase, patients with SD at week 12, Compound 1 group n=14 (95% CI: 11 weeks, upper limit not yet reached)) was 21 weeks, the bone scan analysis ([8]; one patient (FIG. 4)) was “tumor shrinkage was observed” and the “narcotic use to control pain” value ([8]; same patient, by seven weeks, continued until week 25) was “substantially reduced narcotic use”. The pain ([8]; second patient, pain score 5 on a scale of 10 at baseline, by four weeks, pain-free as of week 73) was “complete resolution of pain”.
